From ChEMBL document CHEMBL3351989, “Structure-activity relationship and interaction studies of new SIRT1 inhibitors with the scaffold of 3-(furan-2-yl)-[1,2,4]triazolo[3,4-b][1,3,4]thiadiazole” (Bioorg Med Chem Lett, 2014)

How the values were obtained:
[1] = target: T1, NAD-dependent protein deacetylase sirtuin-1 (Homo sapiens, UniProt Q96EB6); experiment: Inhibition of hexa-His-tagged recombinant human SIRT1 expressed in Escherichia coli BL21(DE3) using AMC-labeled Arg-His-Lys-Lys(ac) as substrate assessed as inhibition of deacetylation of peptide after 45 mins by fluorescence assay
T1 sequence (Q96EB6 whole entry): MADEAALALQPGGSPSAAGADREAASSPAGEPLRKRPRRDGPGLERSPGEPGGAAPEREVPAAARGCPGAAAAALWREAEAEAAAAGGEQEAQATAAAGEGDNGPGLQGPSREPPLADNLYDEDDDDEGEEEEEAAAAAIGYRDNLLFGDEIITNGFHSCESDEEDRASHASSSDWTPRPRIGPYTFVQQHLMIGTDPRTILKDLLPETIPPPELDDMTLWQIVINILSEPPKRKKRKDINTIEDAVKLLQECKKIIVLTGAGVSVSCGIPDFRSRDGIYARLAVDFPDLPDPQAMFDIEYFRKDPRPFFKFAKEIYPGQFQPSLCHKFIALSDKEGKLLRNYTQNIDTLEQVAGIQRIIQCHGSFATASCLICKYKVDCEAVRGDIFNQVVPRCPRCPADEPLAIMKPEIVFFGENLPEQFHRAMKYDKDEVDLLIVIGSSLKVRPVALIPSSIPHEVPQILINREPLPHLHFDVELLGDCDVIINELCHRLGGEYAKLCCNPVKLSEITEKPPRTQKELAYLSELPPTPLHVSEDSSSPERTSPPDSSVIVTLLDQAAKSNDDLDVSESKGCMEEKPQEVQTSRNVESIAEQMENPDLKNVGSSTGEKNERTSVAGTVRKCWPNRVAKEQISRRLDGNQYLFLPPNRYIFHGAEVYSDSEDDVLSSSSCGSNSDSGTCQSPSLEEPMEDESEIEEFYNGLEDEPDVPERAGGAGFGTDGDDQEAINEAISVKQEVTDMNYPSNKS

[2] = target: T2, NAD-dependent protein deacetylase sirtuin-1 (Homo sapiens) (UniProt Q96EB6); experiment: Inhibition of SIRT1-mediated deacetylation of p53 in human MCF7 cells at 1.2 to 100 uM after 6 hrs by Western blotting; format: cell-based
T2 sequence (whole entry): T1 sequence (Q96EB6 whole entry)

[3] = target: T3, NAD-dependent protein deacetylase sirtuin-1 (Homo sapiens, UniProt Q96EB6, F273L); experiment: Inhibition of human SIRT1 F273L mutant expressed in Escherichia coli BL21(DE3) using AMC-labeled Arg-His-Lys-Lys(ac) as substrate assessed as inhibition of deacetylation of peptide after 45 mins by fluorescence assay
T3 sequence (Q96EB6 2-747 F273L limits assumed): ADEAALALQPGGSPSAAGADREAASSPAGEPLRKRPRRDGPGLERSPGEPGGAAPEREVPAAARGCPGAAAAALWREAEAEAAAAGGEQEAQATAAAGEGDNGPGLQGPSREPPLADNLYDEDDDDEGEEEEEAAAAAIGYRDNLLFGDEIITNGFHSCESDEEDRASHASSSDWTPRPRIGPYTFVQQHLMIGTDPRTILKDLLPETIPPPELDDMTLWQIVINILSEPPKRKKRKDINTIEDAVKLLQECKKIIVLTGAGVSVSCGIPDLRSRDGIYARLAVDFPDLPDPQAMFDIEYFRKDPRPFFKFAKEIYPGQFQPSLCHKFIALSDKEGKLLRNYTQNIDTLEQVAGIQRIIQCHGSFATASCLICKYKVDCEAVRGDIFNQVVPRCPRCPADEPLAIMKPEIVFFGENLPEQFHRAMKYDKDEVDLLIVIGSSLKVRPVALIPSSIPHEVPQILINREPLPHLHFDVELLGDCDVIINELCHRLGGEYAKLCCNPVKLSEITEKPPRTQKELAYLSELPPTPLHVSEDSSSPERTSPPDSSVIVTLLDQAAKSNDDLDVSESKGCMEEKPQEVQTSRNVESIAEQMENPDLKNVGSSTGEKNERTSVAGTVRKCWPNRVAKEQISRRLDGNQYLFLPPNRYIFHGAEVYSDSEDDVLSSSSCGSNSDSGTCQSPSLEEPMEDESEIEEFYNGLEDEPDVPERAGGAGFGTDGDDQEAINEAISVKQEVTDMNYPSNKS

[4] = target: T4, NAD-dependent protein deacetylase sirtuin-1 (Homo sapiens, UniProt Q96EB6, I347A); experiment: Inhibition of human SIRT1 I347A mutant expressed in Escherichia coli BL21(DE3) using AMC-labeled Arg-His-Lys-Lys(ac) as substrate assessed as inhibition of deacetylation of peptide after 45 mins by fluorescence assay
T4 sequence (Q96EB6 2-747 I347A limits assumed): as the sequence (Q96EB6 2-747 F273L limits assumed) above, with L272F, I346A counted along it

[5] = target: T5, NAD-dependent protein deacetylase sirtuin-1 (Homo sapiens, UniProt Q96EB6, F414A); experiment: Inhibition of human SIRT1 F414A mutant expressed in Escherichia coli BL21(DE3) using AMC-labeled Arg-His-Lys-Lys(ac) as substrate assessed as inhibition of deacetylation of peptide after 45 mins by fluorescence assay
T5 sequence (Q96EB6 2-747 F414A limits assumed): as the sequence (Q96EB6 2-747 F273L limits assumed) above, with L272F, F413A counted along it

[6] = target: T3, NAD-dependent protein deacetylase sirtuin-1; experiment: Inhibition of human SIRT1 F273L mutant expressed in Escherichia coli BL21(DE3) using AMC-labeled Arg-His-Lys-Lys(ac) as substrate assessed as inhibition of deacetylation of peptide after 45 mins by Lineweaver-Burke plot method
[7] = target: T4, NAD-dependent protein deacetylase sirtuin-1; experiment: Inhibition of human SIRT1 I347A mutant expressed in Escherichia coli BL21(DE3) using AMC-labeled Arg-His-Lys-Lys(ac) as substrate assessed as inhibition of deacetylation of peptide after 45 mins by Lineweaver-Burke plot method
[8] = target: T5, NAD-dependent protein deacetylase sirtuin-1; experiment: Inhibition of human SIRT1 F414A mutant expressed in Escherichia coli BL21(DE3) using AMC-labeled Arg-His-Lys-Lys(ac) as substrate assessed as inhibition of deacetylation of peptide after 45 mins by Lineweaver-Burke plot method
[9] = target: T1, NAD-dependent protein deacetylase sirtuin-1; experiment: Inhibition of hexa-His-tagged recombinant human SIRT1 expressed in Escherichia coli BL21(DE3) using AMC-labeled Arg-His-Lys-Lys(ac) as substrate assessed as inhibition of deacetylation of peptide after 45 mins by Lineweaver-Burke plot method

Structure (SMILES)	IC50 [1]	other results
COc1cc(-c2nn3c(-c4ccco4)nnc3s2)cc(OC)c1OC	35.6 µM	
Cc1ccc(OCc2nn3c(-c4ccco4)nnc3s2)cc1C	28.7 µM	
CCOc1cc(-c2nn3c(-c4ccco4)nnc3s2)cc(OCC)c1OCC	65.7 µM	
c1coc(-c2nnc3sc(Cc4ccc5c(c4)OCCO5)nn23)c1	67 µM	
COc1ccc(OCc2nn3c(-c4ccco4)nnc3s2)cc1	41 µM	
c1coc(-c2nnc3sc(-c4ccc5c(c4)OCO5)nn23)c1	45.2 µM	
CC(Oc1ccccc1)c1nn2c(-c3ccco3)nnc2s1 (stereo not drawn)	67.9 µM	
COc1ccccc1OCc1nn2c(-c3ccco3)nnc2s1	51.2 µM	
c1ccc(CCCc2nn3c(-c4ccco4)nnc3s2)cc1	12.2 µM	
Fc1ccc(-c2ccc(-c3nn4c(-c5ccco5)nnc4s3)o2)cc1	> 100 µM	
CCOc1ccccc1OCc1nn2c(-c3ccco3)nnc2s1	13.7 µM	
Cc1cccc(OCc2nn3c(-c4ccco4)nnc3s2)c1	75.3 µM	
COc1ccc(Cc2nn3c(-c4ccco4)nnc3s2)cc1	76.9 µM	
COc1ccc(-c2nn3c(-c4ccco4)nnc3s2)cc1OC	24.8 µM	
COc1ccc(Cc2nn3c(-c4ccco4)nnc3s2)cc1OC	4.1 µM	inhibition [2]: Dose-dependent effect
CCC(Oc1ccccc1)c1nn2c(-c3ccco3)nnc2s1 (stereo not drawn)	> 100 µM	
c1ccc(CCc2nn3c(-c4ccco4)nnc3s2)cc1	47.4 µM	
Cc1ccccc1OCc1nn2c(-c3ccco3)nnc2s1	18.7 µM	
Clc1ccc(Cc2nn3c(-c4ccco4)nnc3s2)cc1	78 µM	
c1ccc(OCc2nn3c(-c4ccco4)nnc3s2)cc1	61.3 µM	
CCC(c1ccccc1)c1nn2c(-c3ccco3)nnc2s1 (stereo not drawn)	96.2 µM	
c1ccc(Cc2nn3c(-c4ccco4)nnc3s2)cc1	37.9 µM	
c1coc(-c2nnc3sc(-c4ccc5c(c4)OCCO5)nn23)c1	40.7 µM	
c1coc(-c2nnc3sc(C4COc5ccccc5O4)nn23)c1 (stereo not drawn)	8.9 µM	inhibition [2]: Dose-dependent effect
COc1cccc(OCc2nn3c(-c4ccco4)nnc3s2)c1	48.4 µM	
c1coc(-c2nnc3sc(-c4cc5ccccc5o4)nn23)c1	20.6 µM	
Cc1ccc(OCc2nn3c(-c4ccco4)nnc3s2)cc1	29.3 µM	

More lines, main results first:

IC50 [1]	Structure (SMILES)	other results
18.8 µM	C=CCOc1cccc(-c2nn3c(-c4ccco4)nnc3s2)c1	
31.3 µM	CCOc1ccc(-c2nn3c(-c4ccco4)nnc3s2)cc1	
29.5 µM	C=CCOc1ccc(-c2nn3c(-c4ccco4)nnc3s2)cc1	
78.8 µM	c1cncc(-c2nn3c(-c4ccco4)nnc3s2)c1	
22 µM	c1coc(-c2nn3c(-c4ccco4)nnc3s2)c1	
23.6 µM	CCOc1ccccc1-c1nn2c(-c3ccco3)nnc2s1	
66.6 µM	c1coc(-c2nnc3sc(-c4cnccn4)nn23)c1	
27.4 µM	Cc1ccc(-c2nn3c(-c4ccco4)nnc3s2)cc1	
20.3 µM	COc1cccc(-c2nn3c(-c4ccco4)nnc3s2)c1	
19 µM	CCOc1cccc(-c2nn3c(-c4ccco4)nnc3s2)c1	
3.5 µM	c1ccc(-c2nn3c(-c4ccco4)nnc3s2)nc1	inhibition [2]: Dose-dependent effect; IC50 [3]: 133 µM; IC50 [4]: 87.9 µM; IC50 [5]: 44 µM; Ki [6]: 58.9 µM; Ki [7]: 39.1 µM; Ki [8]: 24.1 µM; Ki [9]: 0.6 µM
46.7 µM	COc1ccc(-c2nn3c(-c4ccco4)nnc3s2)cc1	
49.8 µM	c1coc(-c2nnc3sc(-c4ccncc4)nn23)c1	
88.6 µM	c1coc(-c2nnc3sc(-c4cccs4)nn23)c1	
27.6 µM	c1ccc(-c2nn3c(-c4ccco4)nnc3s2)cc1	
7.5 µM	Cc1cccc(-c2nn3c(-c4ccco4)nnc3s2)c1	
